This passage reports % of control and % of inhibition results from ChEMBL document CHEMBL5465560, “Selectivity Literature for EUbOPEN Chemogenomic Library” (2024).

Assay [1] concerns the target Protein kinase C beta type (Homo sapiens, UniProt P05771). The experiment in a line: Selectivity interaction (Kinase panel (Z-LYTE Assay)) EUB0001632a PRKCB. As to conditions: at 10 µM.
In assay [2] the target is T1, Ephrin type-B receptor 1 (Homo sapiens) (UniProt P54762).
T1 sequence (whole entry): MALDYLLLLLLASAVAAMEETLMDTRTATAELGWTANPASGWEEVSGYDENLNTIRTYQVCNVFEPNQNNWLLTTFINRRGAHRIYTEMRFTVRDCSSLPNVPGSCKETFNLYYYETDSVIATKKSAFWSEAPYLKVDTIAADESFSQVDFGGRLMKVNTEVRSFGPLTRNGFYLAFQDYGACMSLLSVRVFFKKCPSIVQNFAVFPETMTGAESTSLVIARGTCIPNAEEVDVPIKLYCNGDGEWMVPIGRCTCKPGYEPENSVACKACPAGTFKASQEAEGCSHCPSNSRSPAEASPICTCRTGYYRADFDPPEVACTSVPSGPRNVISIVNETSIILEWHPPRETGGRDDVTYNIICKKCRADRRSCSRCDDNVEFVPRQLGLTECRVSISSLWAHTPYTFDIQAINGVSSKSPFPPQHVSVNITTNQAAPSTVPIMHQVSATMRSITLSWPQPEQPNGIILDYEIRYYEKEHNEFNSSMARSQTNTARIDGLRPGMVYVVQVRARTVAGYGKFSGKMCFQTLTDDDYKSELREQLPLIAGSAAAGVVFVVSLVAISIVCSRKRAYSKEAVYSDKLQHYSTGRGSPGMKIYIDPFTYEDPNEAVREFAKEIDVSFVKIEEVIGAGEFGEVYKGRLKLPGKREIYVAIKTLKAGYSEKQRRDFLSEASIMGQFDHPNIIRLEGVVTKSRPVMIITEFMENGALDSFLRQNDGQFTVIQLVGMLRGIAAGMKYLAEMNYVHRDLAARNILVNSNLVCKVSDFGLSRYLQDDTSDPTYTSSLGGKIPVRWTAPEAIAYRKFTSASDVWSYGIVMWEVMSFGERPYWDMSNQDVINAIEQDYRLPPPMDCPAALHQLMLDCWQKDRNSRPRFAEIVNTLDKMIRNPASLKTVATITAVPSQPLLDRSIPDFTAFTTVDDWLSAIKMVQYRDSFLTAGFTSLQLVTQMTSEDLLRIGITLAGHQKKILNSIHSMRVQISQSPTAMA
In words: Selectivity interaction (SelectScreen profiling (Invitrogen)) EUB0000607a EPHB1. As to conditions: at 2 µM.

Assay [3] has as its target Glycogen synthase kinase-3 beta (Homo sapiens, UniProt P49841). In words: Selectivity interaction (ActivX KiNativ screen (ex vivo kinase selectivity in human PBMCs)) EUB0001619a GSK3B. As to conditions: PBMC, at 1 µM. It is filed as cell-based.
For assay [4], the target named is Serine/threonine-protein kinase WNK2 (Homo sapiens) (UniProt Q9Y3S1). In words: Selectivity interaction (ActivX KiNativ screen (ex vivo kinase selectivity in human PBMCs)) EUB0001619a WNK2. It counts as cell-based. Particulars: PBMC, at 1 µM.
For assay [5], the target named is Insulin receptor-related protein (Homo sapiens) (UniProt P14616). As to conditions: at 10 µM.
The target of assay [6] is Angiopoietin-1 receptor (Homo sapiens) (UniProt Q02763). Particulars: at 10 µM.
The target in assay [7] is Mitogen-activated protein kinase kinase kinase kinase 5 (Homo sapiens) (UniProt Q9Y4K4). In words: Selectivity interaction (KinomeScan (DiscoverX)) EUB0000092b MAP4K5. As to conditions: at 10 µM.
Assay [8] deals with T2, Serine/threonine-protein kinase 17B (Homo sapiens) (UniProt O94768).
T2 sequence (whole entry): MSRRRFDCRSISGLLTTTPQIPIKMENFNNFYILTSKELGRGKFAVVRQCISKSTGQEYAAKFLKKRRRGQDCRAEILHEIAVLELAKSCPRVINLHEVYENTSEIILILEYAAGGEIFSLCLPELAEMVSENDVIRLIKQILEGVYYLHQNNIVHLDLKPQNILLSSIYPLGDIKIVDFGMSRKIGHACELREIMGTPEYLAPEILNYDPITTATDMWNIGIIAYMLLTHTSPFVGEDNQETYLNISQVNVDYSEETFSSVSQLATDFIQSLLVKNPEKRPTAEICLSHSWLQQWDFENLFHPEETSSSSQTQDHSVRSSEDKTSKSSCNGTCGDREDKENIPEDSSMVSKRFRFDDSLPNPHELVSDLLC
The experiment in a line: Selectivity interaction (KinomeScan (DiscoverX)) EUB0000045b STK17B.

Assay [9] concerns the target Leukocyte tyrosine kinase receptor (Homo sapiens, UniProt P29376). The experiment in a line: Selectivity interaction (KinomeScan (DiscoverX)) EUB0000045b LTK.
In assay [10] the target is T3, Serine/threonine-protein kinase DCLK3 (Homo sapiens) (UniProt Q9C098).
T3 sequence (whole entry): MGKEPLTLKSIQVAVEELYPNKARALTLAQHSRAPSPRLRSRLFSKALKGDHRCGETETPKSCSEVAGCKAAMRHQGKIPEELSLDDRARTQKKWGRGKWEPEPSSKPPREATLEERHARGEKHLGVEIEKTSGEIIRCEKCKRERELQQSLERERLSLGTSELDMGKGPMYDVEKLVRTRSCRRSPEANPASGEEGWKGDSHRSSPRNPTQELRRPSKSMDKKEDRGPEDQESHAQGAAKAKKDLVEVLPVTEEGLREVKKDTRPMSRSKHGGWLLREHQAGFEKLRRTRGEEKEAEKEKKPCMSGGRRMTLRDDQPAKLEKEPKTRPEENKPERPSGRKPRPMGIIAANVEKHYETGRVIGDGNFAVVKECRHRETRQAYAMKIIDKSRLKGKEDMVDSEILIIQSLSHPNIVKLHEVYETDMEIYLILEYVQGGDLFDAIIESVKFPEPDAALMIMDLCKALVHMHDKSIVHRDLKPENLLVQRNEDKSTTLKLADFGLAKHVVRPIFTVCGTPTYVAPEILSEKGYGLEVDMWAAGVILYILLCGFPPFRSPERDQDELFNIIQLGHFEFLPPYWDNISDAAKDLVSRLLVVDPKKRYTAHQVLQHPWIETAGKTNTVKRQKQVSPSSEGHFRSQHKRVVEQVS
In words: Selectivity interaction (KinomeScan (DiscoverX)) EUB0000618a DCLK3. As to conditions: at 10 µM.

Chain of Leukocyte tyrosine kinase receptor (P29376 whole entry): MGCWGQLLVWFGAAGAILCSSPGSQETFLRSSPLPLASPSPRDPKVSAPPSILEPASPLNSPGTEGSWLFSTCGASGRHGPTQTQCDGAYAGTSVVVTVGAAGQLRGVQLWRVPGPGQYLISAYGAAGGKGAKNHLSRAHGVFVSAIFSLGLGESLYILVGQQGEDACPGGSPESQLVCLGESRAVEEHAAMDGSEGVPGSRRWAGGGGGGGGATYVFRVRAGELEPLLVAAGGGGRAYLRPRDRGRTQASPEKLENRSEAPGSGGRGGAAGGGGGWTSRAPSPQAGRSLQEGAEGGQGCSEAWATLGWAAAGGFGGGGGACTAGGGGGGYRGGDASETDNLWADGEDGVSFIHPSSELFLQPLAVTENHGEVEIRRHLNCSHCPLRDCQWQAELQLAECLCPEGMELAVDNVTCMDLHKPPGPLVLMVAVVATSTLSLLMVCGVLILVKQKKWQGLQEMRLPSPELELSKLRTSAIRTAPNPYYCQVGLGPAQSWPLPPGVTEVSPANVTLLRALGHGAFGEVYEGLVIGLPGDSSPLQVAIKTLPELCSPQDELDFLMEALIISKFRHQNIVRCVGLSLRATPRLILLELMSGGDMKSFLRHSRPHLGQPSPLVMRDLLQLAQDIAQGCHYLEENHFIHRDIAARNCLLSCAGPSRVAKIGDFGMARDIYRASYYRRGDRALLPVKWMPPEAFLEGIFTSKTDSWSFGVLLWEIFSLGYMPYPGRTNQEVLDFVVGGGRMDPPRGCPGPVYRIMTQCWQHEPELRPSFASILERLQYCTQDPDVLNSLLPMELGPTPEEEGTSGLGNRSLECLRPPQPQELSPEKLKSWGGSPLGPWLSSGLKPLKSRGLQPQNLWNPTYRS
Chain of Glycogen synthase kinase-3 beta (P49841 whole entry, looked up): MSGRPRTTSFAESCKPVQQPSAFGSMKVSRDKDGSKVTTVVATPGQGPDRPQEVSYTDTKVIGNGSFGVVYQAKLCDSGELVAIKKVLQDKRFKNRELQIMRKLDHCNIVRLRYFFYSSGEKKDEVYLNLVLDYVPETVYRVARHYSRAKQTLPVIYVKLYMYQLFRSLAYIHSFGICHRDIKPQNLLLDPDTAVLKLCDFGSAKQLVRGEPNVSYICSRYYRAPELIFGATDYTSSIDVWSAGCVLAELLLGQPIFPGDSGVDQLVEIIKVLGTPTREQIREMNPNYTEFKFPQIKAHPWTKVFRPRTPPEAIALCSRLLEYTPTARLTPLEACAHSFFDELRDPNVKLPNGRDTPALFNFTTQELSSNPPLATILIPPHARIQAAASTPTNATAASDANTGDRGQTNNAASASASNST
Chain of Serine/threonine-protein kinase WNK2 (Homo sapiens) (Q9Y3S1 whole entry): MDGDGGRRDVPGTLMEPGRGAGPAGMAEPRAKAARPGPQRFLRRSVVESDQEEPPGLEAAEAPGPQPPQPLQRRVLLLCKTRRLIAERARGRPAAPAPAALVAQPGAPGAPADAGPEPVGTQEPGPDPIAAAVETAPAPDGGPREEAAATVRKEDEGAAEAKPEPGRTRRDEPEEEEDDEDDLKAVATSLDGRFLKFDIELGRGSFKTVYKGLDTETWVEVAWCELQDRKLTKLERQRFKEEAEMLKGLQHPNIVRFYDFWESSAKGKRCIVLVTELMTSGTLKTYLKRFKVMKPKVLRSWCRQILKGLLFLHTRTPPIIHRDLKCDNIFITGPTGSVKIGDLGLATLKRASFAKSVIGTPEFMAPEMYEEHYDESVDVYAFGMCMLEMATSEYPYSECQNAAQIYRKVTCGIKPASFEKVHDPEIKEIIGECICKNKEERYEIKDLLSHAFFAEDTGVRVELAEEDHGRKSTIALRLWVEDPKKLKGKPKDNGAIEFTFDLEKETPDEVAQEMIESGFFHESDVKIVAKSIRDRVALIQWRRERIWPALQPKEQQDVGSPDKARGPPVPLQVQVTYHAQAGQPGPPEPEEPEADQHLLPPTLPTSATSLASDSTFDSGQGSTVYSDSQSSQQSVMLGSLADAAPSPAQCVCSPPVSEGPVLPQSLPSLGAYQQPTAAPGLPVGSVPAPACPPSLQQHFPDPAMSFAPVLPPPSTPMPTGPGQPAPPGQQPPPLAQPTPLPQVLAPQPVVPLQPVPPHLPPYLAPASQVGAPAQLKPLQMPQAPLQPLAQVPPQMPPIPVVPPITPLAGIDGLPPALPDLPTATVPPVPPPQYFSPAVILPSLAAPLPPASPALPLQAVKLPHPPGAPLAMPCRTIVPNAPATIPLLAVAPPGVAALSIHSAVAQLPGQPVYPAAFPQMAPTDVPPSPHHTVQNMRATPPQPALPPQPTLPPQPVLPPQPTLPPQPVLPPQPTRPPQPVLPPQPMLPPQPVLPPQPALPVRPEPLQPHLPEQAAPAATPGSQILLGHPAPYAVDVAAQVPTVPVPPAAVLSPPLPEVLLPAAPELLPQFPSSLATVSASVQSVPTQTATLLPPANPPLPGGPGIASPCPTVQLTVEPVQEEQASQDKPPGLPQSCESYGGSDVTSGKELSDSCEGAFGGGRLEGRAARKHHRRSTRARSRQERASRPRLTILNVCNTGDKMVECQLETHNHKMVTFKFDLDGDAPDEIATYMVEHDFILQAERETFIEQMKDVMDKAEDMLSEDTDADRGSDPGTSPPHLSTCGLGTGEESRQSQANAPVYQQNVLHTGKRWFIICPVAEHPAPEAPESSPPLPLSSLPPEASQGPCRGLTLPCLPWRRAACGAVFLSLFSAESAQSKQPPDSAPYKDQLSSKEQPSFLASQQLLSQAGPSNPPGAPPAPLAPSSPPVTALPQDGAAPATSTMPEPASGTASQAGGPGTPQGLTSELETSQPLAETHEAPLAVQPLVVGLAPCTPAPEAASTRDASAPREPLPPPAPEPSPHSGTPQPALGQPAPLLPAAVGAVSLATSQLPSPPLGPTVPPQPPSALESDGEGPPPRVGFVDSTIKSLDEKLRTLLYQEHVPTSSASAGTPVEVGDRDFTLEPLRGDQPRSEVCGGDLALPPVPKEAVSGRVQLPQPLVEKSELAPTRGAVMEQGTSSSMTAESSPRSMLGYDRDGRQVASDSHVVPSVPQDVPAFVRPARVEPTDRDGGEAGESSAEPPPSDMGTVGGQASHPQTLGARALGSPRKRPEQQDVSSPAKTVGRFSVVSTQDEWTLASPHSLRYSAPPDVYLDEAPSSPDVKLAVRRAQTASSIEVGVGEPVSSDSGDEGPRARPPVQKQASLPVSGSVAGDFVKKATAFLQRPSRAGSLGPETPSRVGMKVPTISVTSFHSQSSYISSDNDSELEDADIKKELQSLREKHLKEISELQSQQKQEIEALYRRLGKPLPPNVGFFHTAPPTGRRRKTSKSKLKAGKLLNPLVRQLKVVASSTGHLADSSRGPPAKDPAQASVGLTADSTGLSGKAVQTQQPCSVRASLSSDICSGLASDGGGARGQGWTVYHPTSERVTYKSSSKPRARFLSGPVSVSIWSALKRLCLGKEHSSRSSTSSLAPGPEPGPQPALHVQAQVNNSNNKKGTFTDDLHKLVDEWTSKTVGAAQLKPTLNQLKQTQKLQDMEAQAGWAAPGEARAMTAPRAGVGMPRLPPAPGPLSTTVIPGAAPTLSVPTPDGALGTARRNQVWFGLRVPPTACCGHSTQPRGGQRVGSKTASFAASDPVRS
Chain of Protein kinase C beta type (P05771 2-671 limits assumed): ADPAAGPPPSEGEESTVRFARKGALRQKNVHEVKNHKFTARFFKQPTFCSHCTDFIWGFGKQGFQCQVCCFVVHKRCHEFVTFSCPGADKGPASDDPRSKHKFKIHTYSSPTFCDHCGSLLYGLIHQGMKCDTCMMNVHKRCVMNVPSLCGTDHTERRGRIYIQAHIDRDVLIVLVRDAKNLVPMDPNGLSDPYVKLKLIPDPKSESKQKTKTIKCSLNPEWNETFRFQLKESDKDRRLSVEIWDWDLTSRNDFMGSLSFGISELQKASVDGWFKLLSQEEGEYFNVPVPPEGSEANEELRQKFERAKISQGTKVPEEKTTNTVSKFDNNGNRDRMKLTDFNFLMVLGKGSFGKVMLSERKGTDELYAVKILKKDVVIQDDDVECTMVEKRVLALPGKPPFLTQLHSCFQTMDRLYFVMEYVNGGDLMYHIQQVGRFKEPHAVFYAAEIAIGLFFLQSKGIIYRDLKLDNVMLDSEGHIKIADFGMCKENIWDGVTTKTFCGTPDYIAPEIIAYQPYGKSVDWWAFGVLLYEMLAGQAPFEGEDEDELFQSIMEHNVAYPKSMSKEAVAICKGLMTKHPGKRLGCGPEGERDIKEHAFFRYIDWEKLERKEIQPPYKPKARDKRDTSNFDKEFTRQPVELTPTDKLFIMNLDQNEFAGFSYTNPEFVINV
Chain of Mitogen-activated protein kinase kinase kinase kinase 5 (Homo sapiens) (Q9Y4K4 whole entry, looked up): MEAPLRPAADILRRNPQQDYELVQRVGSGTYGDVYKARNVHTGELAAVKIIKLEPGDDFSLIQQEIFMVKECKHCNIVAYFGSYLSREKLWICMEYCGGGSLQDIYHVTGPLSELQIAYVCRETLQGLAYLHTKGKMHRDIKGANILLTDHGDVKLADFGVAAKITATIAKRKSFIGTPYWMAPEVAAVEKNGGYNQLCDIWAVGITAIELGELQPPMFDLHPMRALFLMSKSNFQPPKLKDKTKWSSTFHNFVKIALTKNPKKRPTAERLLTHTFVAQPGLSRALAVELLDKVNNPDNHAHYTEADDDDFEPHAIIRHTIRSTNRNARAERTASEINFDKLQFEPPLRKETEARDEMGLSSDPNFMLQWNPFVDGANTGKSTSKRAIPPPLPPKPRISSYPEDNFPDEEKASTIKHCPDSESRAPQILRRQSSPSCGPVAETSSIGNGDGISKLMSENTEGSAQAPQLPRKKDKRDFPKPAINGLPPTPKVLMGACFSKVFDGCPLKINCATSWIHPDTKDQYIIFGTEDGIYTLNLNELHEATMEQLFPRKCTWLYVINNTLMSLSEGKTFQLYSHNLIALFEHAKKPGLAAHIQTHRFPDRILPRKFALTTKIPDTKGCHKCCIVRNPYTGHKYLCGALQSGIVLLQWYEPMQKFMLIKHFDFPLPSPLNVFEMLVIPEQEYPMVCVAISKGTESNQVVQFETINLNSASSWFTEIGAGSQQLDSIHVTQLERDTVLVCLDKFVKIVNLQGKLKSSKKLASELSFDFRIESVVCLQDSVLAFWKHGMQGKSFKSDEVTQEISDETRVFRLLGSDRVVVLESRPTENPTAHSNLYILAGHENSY

`Cn1cc(-n2cnc3c(NCc4nc5cc(Cl)c(Cl)cc5[nH]4)nc(N4CCOCC4)nc32)cn1` had a % of control in assay [1] of 45.9%.

In the case of `CNC(=O)Nc1ccc(-c2nc(N3CC4CCC(C3)O4)c3cnn(C4CCC5(CC4)OCCO5)c3n2)cc1`, the % of inhibition in assay [2] was 2%.

Regarding `N#Cc1cccc(-c2c[nH]c3ncnc(N4CCOCC4)c23)c1`, the % of inhibition was 7% in assay [3] and -1% in assay [4].

On to `CCN(CC)CCCCNc1ncc2cc(-c3cc(OC)cc(OC)c3)c(NC(=O)NC(C)(C)C)nc2n1`, for which the % of control in assay [5] and in assay [6] was 100% in each case.

Regarding `CCC(=O)N1CCN(c2ccc(-n3c(=O)ccc4cnc5ccc(-c6cnc7ccccc7c6)cc5c43)cc2C(F)(F)F)CC1`, the % of control in assay [7] was 8.1%.

Turning to `C=CC(=O)Nc1cc(-n2c(=O)ccc3cnc4ccc(-c5ccc(NS(C)(=O)=O)cc5)cc4c32)ccc1C`, the % of control in assay [8] (at 1 µM), in assay [8] (at 10 µM), in assay [9] (at 1 µM) and in assay [9] (at 10 µM) was 100% in each case.

The compound `O[C@H]1CC[C@H](Nc2ncc3nc(Nc4c(F)cc(F)cc4F)n([C@H]4CCOC4)c3n2)CC1` had a % of control in [10] of 98%.
